Source: patent US6521647B2, “Treatment of renal disorders” (Pfizer Inc., priority 2000, dated 2003)

Experiments:
[1] = test system: normotensive nephrectomised cats with chronic renal failure; assay: GFR in normotensive nephrectomised cats with chronic renal failure (Example 1); assay type: in vivo, cat; settings: amlodipine besylate once daily at 0.125 mg/kg; after 35 days; no change in placebo group
Protocol: In this experiment, comparative groups of normotensive nephrectomised cats with chronic renal failure had their GFR measured. […] After 35 days the GFR was measured again. There was no change in the placebo group, but the GFR had increased by an average of ca. 28% for the amlodipine-treated group.

[2] = test system: cats with chronic renal failure; assay: GFR from plasma clearance of iohexol in client-owned normotensive cats with spontaneous chronic renal failure (Experiment 2); assay type: in vivo, cat
Excerpt: The data in the Table below were collected from client-owned, pet cats that had been diagnosed with spontaneous chronic renal failure (chronic renal insufficiency). These cats were presented by owners/clients to veterinary practices for evaluation of general health, kidney function, and systolic blood pressure.
Chronic renal failure is generally considered an irreversible and progressive disease in cats. […] Cats were considered normotensive as defined by systolic arterial blood pressure less than 160 mm Hg prior to the onset of treatment.
Renal function was assessed by determining glomerular filtration rate (GFR). GFR was estimated from plasma clearance of the exogenous marker, iohexol, approximately 7 days prior to the onset of treatment (day—7) and on approximately days 28, 56, 112, and 224 following onset of treatment.

## CCOC(=O)C1=C(COCCN)NC(C)=C(C(=O)OC)C1c1ccccc1Cl (stereo not drawn) [Amlodipine, amlodipine besylate]
[1]
  increase in GFR (average): ca. 28%
[2]; 0.125 to 0.25 mg/kg once daily oral, placebo declined 17%
  GFR increase on average between day −7 and day 224: 9%
[2]; 0.125 to 0.25 mg/kg/day orally
  effect on decline in renal function (in words): prevents the decline in function associated with the progression of chronic renal failure in cats
